Data published in the NIST ThermoML archive (doi:10.1021/je050005h).

What was measured:
[1] = 101 kPa, Liquid
[2] = xn = mol fraction of the nth substance listed; settings: 101 kPa, Liquid

C1CCNCC1 [piperidine]
[1]
Settings | kinematic viscosity [m2/s] | mass density [kg/m3]
293.15 K | 1.79e-06 | 863.81
303.15 K | 1.49e-06 | 854.5
313.15 K | 1.25e-06 | 845.08
323.15 K | 1.06e-06 | 835.56

C1CCNCC1 [piperidine] + O
[2]
Settings | kinematic viscosity, 293.15 K [m2/s] | kinematic viscosity, 303.15 K [m2/s] | kinematic viscosity, 313.15 K [m2/s] | kinematic viscosity, 323.15 K [m2/s] | mass density, 293.15 K [kg/m3] | mass density, 303.15 K [kg/m3] | mass density, 313.15 K [kg/m3] | mass density, 323.15 K [kg/m3]
x1 = 0.0055 | 1.11e-06 | 8.82e-07 | 7.18e-07 | 5.98e-07 | 997.07 | 994.34 | 990.68 | 986.17
x1 = 0.011 | 1.21e-06 | 9.53e-07 | 7.72e-07 | 6.36e-07 | 995.89 | 992.89 | 989.03 | 984.42
x1 = 0.028 | 1.5e-06 | 1.2e-06 | 9.42e-07 | 8.12e-07 | 992.43 | 987.87 | 982.66 | 976.92
x1 = 0.0573 | 2.2e-06 | 1.74e-06 | 1.33e-06 | 1.07e-06 | 985.56 | 979.56 | 973.25 | 966.6
x1 = 0.0986 | 3.55e-06 | 2.55e-06 | 1.88e-06 | 1.47e-06 | 974.58 | 967.57 | 960.35 | 952.86
x1 = 0.1795 | 5.94e-06 | 4.01e-06 | 2.81e-06 | 2.14e-06 | 955.67 | 947.6 | 939.32 | 930.84
x1 = 0.2672 | 7.62e-06 | 5.06e-06 | 3.48e-06 | 2.62e-06 | 940.18 | 931.55 | 922.71 | 913.66
x1 = 0.3536 | 8.02e-06 | 5.42e-06 | 3.71e-06 | 2.68e-06 | 927.85 | 918.89 | 909.73 | 900.37
x1 = 0.4387 | 7.04e-06 | 4.97e-06 | 3.49e-06 | 2.53e-06 | 917.5 | 908 | 899 | 889
x1 = 0.5225 | 6.09e-06 | 4.37e-06 | 3.1e-06 | 2.31e-06 | 906.51 | 897.28 | 887.84 | 878.22
x1 = 0.6458 | 4.49e-06 | 3.22e-06 | 2.33e-06 | 1.83e-06 | 892.99 | 883.65 | 874.16 | 864.51
x1 = 0.8454 | – | – | – | – | 875.08 | 865.74 | 856.27 | 846.67
x1 = 0.8455 | 2.6e-06 | 2e-06 | 1.62e-06 | 1.31e-06 | – | – | – | –
x1 = 1 | 1.79e-06 | 1.49e-06 | 1.25e-06 | 1.06e-06 | 863.81 | 854.5 | 845.08 | 835.56

C1CCNC1 [pyrrolidine]
[1]
Settings | kinematic viscosity [m2/s] | mass density [kg/m3]
293.15 K | 9.54e-07 | 859.87
303.15 K | 8.27e-07 | 850.11
313.15 K | 7.43e-07 | 840.24
323.15 K | 6.41e-07 | 833.88

C1CCNC1 [pyrrolidine] + O
[2]
Settings | kinematic viscosity, 293.15 K [m2/s] | kinematic viscosity, 303.15 K [m2/s] | kinematic viscosity, 313.15 K [m2/s] | kinematic viscosity, 323.15 K [m2/s] | mass density, 293.15 K [kg/m3] | mass density, 303.15 K [kg/m3] | mass density, 313.15 K [kg/m3] | mass density, 323.15 K [kg/m3]
x1 = 0.0057 | – | – | – | – | 997.13 | 994.41 | 990.83 | 986.46
x1 = 0.0101 | – | – | – | – | 996.33 | 993.49 | 989.78 | 985.31
x1 = 0.0221 | 1.44e-06 | 1.12e-06 | 8.8e-07 | 7.63e-07 | 994.47 | 991.12 | 986.92 | 982
x1 = 0.0678 | 2.47e-06 | 1.76e-06 | 1.34e-06 | 1.06e-06 | 989.46 | 983.41 | 976.91 | 970.03
x1 = 0.1158 | 3.52e-06 | 2.42e-06 | 1.77e-06 | 1.36e-06 | 980.95 | 973.19 | 965.26 | 957.15
x1 = 0.2076 | 4.53e-06 | 3.15e-06 | 2.27e-06 | 1.73e-06 | 962.31 | 953.57 | 944.65 | 935.51
x1 = 0.3039 | 4.78e-06 | 3.34e-06 | 2.46e-06 | 1.87e-06 | 943.39 | 934.33 | 925.06 | 915.6
x1 = 0.3958 | 4.36e-06 | 3.13e-06 | 2.31e-06 | 1.79e-06 | 928.64 | 919.34 | 909.83 | 900.11
x1 = 0.4834 | 3.64e-06 | 2.73e-06 | 2.08e-06 | 1.61e-06 | 917.04 | 907.58 | 897.92 | 888.05
x1 = 0.5671 | 2.99e-06 | 2.24e-06 | 1.76e-06 | 1.39e-06 | 906.1 | 896 | 886.2 | 877.7
x1 = 0.6858 | 2.13e-06 | 1.71e-06 | 1.37e-06 | 1.12e-06 | 893.17 | 883.53 | 873.7 | 863.68
x1 = 0.8675 | 1.31e-06 | 1.07e-06 | 9.13e-07 | 7.84e-07 | 872.39 | 862.69 | 852.81 | 846.3
x1 = 1 | 9.54e-07 | 8.27e-07 | 7.43e-07 | 6.41e-07 | 859.87 | 850.11 | 840.24 | 833.88

O [water] + C1CCNC1
[2], x2 = 0
Settings | kinematic viscosity [m2/s] | mass density [kg/m3]
293.15 K | 9.9e-07 | –
303.15 K | 8.1e-07 | –
313.15 K | 6.66e-07 | –
323.15 K | 5.61e-07 | 988.02

O [water] + C1CCNCC1
[2], x2 = 0
Settings | kinematic viscosity [m2/s] | mass density [kg/m3]
293.15 K | 9.9e-07 | –
303.15 K | 8.1e-07 | –
313.15 K | 6.66e-07 | –
323.15 K | 5.61e-07 | 988.02
